# Values of other authors as cited in publication PMC10017685 (Nature Communications, 2023).
# Tested on: human erythrocytes
# Design: method as in DBAASP
# Conditions: cited from earlier work
row,Sequence,Class (dedicated toxicity dataset used for toxicity classifier evaluation)
1,KWCFRVCYRGICYRRCR [DBAASP_2229],0
2,RRGCFRVCYRGFCFQRCR [DBAASP_12233],0
3,RRWRIVVIRVRR [DBAASP_1204],0

# Same assay, conditions: toxicity class label 1 or 0, meaning of the labels not given; DBAASP HC50 data, human erythrocytes; ref DBAASP; cited from earlier work
row,Sequence,Class (dedicated toxicity dataset used for toxicity classifier evaluation)
1,KIWFQNKKMKWKK [DBAASP_8802],0
2,KIWFQNRRMKWKK [DBAASP_8800],0
3,KKKKKKKKKGGGLLALLALLA [DBAASP_13727],1
4,KKKLAKLKLGAKLKLKGKLGA [DBAASP_13729],0
5,KKLFKKILKYL [DBAASP_197],0
6,KKLFKKILKYLA [DBAASP_13463],1
7,KKLIKKILKIL [DBAASP_5047],0
8,KKVLKAAA [DBAASP_7361],0
9,KKVLKAAA [DBAASP_7362],0
10,KKVLKAAA [DBAASP_7365],1
11,KKYLLPIVGNLLKSLL [DBAASP_7638],0
12,KLALKLALKALKAALKLA [DBAASP_1030],1
13,KLFKKLFK [DBAASP_17848],0
14,KLGFENFLVKALKTVMHVPTSPLL [DBAASP_5711],0
15,KLLGPLLKIAAKVGSNLL [DBAASP_4921],0
16,KLLKFIKTLL [DBAASP_3151],0
17,KLLKKAGKLLKKAGKLLKKAG [DBAASP_13728],0
18,KLLKRIKKLL [DBAASP_3152],0
19,KLLKRIKTLL [DBAASP_3149],0
20,KLLKVIKKLL [DBAASP_3153],0
21,KQIKIWFQNKKMKWKK [DBAASP_8799],0
22,KQKLAKLKAKLQKLKQKLAKL [DBAASP_10912],0
23,KRIVQRIKDFLR [DBAASP_146],0
24,KRIVQRIKKWLR [DBAASP_6827],0
25,KRRVRWIIW [DBAASP_17712],0

row,Sequence,Class (dedicated toxicity dataset used for toxicity classifier evaluation)
1,KWAVRIIRKFIKGFIS [DBAASP_13726],0
2,KWCVYAYVKVKGVLVKYKKCW [DBAASP_2027],0
3,KWFKIQLQIKKWKNKK [DBAASP_8806],0
4,KWKLFKKIFKRIVQRIKDFLRN [DBAASP_9530],0
5,KWKVFKKAEKMIRNIRNKIVK [DBAASP_11863],0
6,KWKVFKKIEKMARNIRNKIVK [DBAASP_11864],0
7,KWKVFKKIEKMIRNIRNKIAK [DBAASP_11865],0
8,LALKSGGWLRLFGLKDKKH [DBAASP_6706],0
9,LKKVLKAAA [DBAASP_7359],0
10,LLGMIPLAISAISALSKL [DBAASP_3893],0
11,LLGPVLGLVSNVLGGLL [DBAASP_12136],0
12,LLKKVLKAAA [DBAASP_7357],0
13,LLKKVLKAAA [DBAASP_7358],1
14,LPFFLLSLIPSAISAIKKI [DBAASP_8437],1
15,LWGALLGLGSTLLSKL [DBAASP_18167],1
16,LWKIGKKIWRVLWNWR [DBAASP_17519],1
17,LWKIWKKIWRVGWNWR [DBAASP_17513],0
18,LWKIWKKIWRVWKNWR [DBAASP_17516],1
19,LWKIWWKIWRVWKNWR [DBAASP_17523],1
20,MPLSWFFPRTWGKR [DBAASP_9722],0
21,NILNTIINLAKKIL [DBAASP_3562],0
22,NLLGSLLKTGLKVGSNLL [DBAASP_5712],0
23,PFKIDIHLGGY [DBAASP_7635],0
24,RAGLQFPVGRVHRLLRK [DBAASP_7651],0
25,RFCVYAYVRVRGVLVRYRRCF [DBAASP_13515],0

row,Sequence,Class (dedicated toxicity dataset used for toxicity classifier evaluation)
1,RFRRLRKKTRKRLKKI [DBAASP_7143],0
2,RIGVLLARLPKLFSLFKLMGKKV [DBAASP_4189],0
3,RIRFPWPWRWPWWPRFRG [DBAASP_8616],0
4,RIRIRWIIR [DBAASP_17706],0
5,RIRWILRYWRWS [DBAASP_10701],0
6,RIWFQNRRMRWRR [DBAASP_8801],0
7,RPPQFTRAQWFAIQHISLN [DBAASP_6545],1
8,RQIKIWFQNRRLKWKK [DBAASP_8797],0
9,RQIKIWFQNRRMKWKK [DBAASP_6203],0
10,RQIRIWFQNRRMRWRR [DBAASP_8798],0
11,RQYMRQIEQALRYGYRISRR [DBAASP_14411],0
12,RRWCVYAYVRVRGVRVYAYVCW [DBAASP_13506],0
13,RRWYRRWYRRWY [DBAASP_17315],0
14,RWCRRYRVRVRGVLVYAYVCW [DBAASP_13505],0
15,RWCVYAYVRVRGVLVRYRRCW [DBAASP_13517],0
16,RWFKIQLQIRRWKNKK [DBAASP_8805],0
17,RWFKIQMQIRRWKNKK [DBAASP_8804],0
18,RWFRIQLQIRRWRNRR [DBAASP_8807],0
19,RWGKWFKKATHVGKHVGKAALTAYL [DBAASP_997],0
20,RWQWRWQWR [DBAASP_10099],0
21,RWRRFWRR [DBAASP_12823],0
22,RWWLRRIW [DBAASP_10630],0
23,SAVGRHGRRFGLRKHRKH [DBAASP_3348],0
24,SAVGRHLRRFGLRKHRKH [DBAASP_7659],0
25,SAVGRHLRRFLLRKHRKH [DBAASP_7660],0

row,Sequence,Class (dedicated toxicity dataset used for toxicity classifier evaluation)
1,SAVLRHLRRFLLRKHRKH [DBAASP_7661],0
2,SAVWRHWRRFWLRKHRKH [DBAASP_9988],0
3,SAVWRRWRRFWLRKRRKR [DBAASP_9990],0
4,SAVWRWRRFWLRKRK [DBAASP_9989],0
5,SFLTTVKKLVTNLAAL [DBAASP_13626],0
6,SILPTIVSFLSKVF [DBAASP_13348],1
7,SKVGRHGRRFGHRAHRKL [DBAASP_7662],0
8,SKVGRHLRRFGHRAHRKL [DBAASP_7663],0
9,SKVGRHLRRFLHRAHRKL [DBAASP_7664],0
10,SKVLRHLRRFLHRAHRKL [DBAASP_7665],0
11,SKVWRHWRRFWHRAHRKK [DBAASP_8105],0
12,SKVWRHWRRFWHRAHRKL [DBAASP_14980],0
13,SKVWRHWRRFWHRAHRLH [DBAASP_9101],0
14,SYERKINRHFKTLKKNLKKK [DBAASP_13931],0
15,TIAMRAINNYRWRSKNQNTFLR [DBAASP_6544],1
16,VCKRWKKWKRKWKKWCV [DBAASP_16449],0
17,VKKFAWWWAFLKK [DBAASP_11303],0
18,VKKFAWWWPFLKK [DBAASP_11304],0
19,VKKFPWWWAFLKK [DBAASP_11305],0
20,VKKFPWWWPFLKK [DBAASP_5136],0
21,VKRFKKFFRKFKKFV [DBAASP_16446],0
22,VKRFKKFFRKFKKSV [DBAASP_8772],0
23,VKRFKKFFRKLKKSV [DBAASP_4328],0
24,VKRWKKFWRKWKKWW [DBAASP_8774],0
